Assay results reported in patent US10174005B2, “Fused pyrimidines as inhibitors of p97 complex” (Cleave Biosciences, Inc., priority 2014, dated 2019).

How the values were obtained:
p97 = p97 (Homo sapiens, UniProt P55072); assay: P97 ATPase biochemical assay (ADP Glo); settings: 20 nM p97, 20 μM ATP, 37° C. for 15 minutes
Method: The ATPase assay is performed according the following protocol: Purified enzyme (20 nM p97), substrate (20 μM ATP) and a dose titration of compounds are mixed in buffer (50 mM TRIS pH 7.5, 20 mM MgCl2, 0.02% TX-100, 1 mM DTT, 0.2% (v/v) glycerol) and incubated at 37° C. for 15 minutes. The reaction is terminated and the level of product generated is measured using the ADP Glo Assay Kit (Promega, Madison Wis.). Plotting product generated versus compound concentration and using a four-parameter fit model generates an IC50 value for each compounds.
The p97 assay is an initial screening assay used to determine inhibitory activity of the fused pyrimidine compounds of the invention against the p97 complex. As discussed above, inhibition of activity of the p97 proteosome complex can enable apoptosis and cause elimination of neoplastic cells (cancer cells). The method follows that of Christianson in Nat. Cell Biol., (2011) 14:93.
Assay Buffer is a mixture of 50 mM TRIS pH 7.5, 20 mM MgCl2, 0.02% TX-100, 1 mM DTT and 0.2% (v/v) Glycerol. The well plate is Platetype: Corning 3674, 384w plate. The identification kit is an ADP glo kit (Promega): stop buffer, detection reagent.
Serial dilute compound in DMSO in a 1:3.33-fold 10 point serial dilution.
in each well of 384w plate add the following reagents:
0.5 μL compound serial diluted in DMSO (Final Conc. 10%)
2 μL ATP (Final Conc.=20 uM, diluted in assay buffer)
2.5 μL p97 (Final Conc.=20 nM, diluted in assay buffer)
Incubate at 37 deg C. for 15 min.
Add 5 μL of stop buffer, incubate at RT for 40 min.
Add 10 μL of detection reagent, incubate at RT for 30 min.
Read luminescence on Envision plate reader.
Upon obtaining the data from the luminescence reading, the data may be analyzed as follows:
Normalize luminescence data using no enzyme (full inhibition) and no compound (no inhibition) controls. Plot normalized luminescence data against log-transformed concentration values and fit to a sigmoidal curve to determine IC50 values (done in Collaborative Drug Discovery software).

A549 cells = assay: Cultured cancer cell viability assay (cell titer glo, CTG) in A549 cells; type: cell-based; settings: Homo sapiens; A549 cells, 72 hr incubation, cell titer glo; read-out: A549 CTG IC50
Source text: Anti-tumor effects are monitored in cultured cancer cells after several days of compound treatment. The cell titer glo assay (Promega) measures the amount of ATP present as a proxy for cellular viability. Cellular counting is done using high-content microscopy followed by image analysis. A hanging drop 3D-culture system (3D Biomatrix) is used followed by cell titer glo to measure growth in a tumor-like environment.
The cellular assay provides information about the anti-neoplastic activity of the compounds of the invention. The compounds are tested against cultured cancer cells to determine whether or not the compounds of the invention are capable of intersecting with cancer cells to minimize or eliminate such cells. The assay involves establishing colonies of such cells and then treating them with the test compound under specified conditions and analysis regima to determine results.
(§1) Cell Plating: • Seed cells ˜16 hrs prior to compound treatment • Plate 25 μL of A549 cells in every well of 384-well plate using multidrop. • Two (2) black plates for IF at 2500 cells/well • Let plate sit at room temp for 10-15 minutes prior to putting in incubator to • allow cells to stick in middle of plate. • One (1) white plate for viability at 500 cells/well.
(§2) Day 2 Treatment of Cultured Cells with Test Compounds • Treat Cells: • Serial dilute compounds with a 10 point 2-fold serial dilution in DMSO to make 250× stock compound solution • Dilute compounds 1:125 in cell culture media to make a 2× solution Add • 25 μl of dilution compounds to cell plates in well duplicates Put cells back in incubator (6 hr incubation for black plates, 72 hr incubation for white plates).
Viability Assay: • Thaw an aliquot of frozen cell titer glo (Promega G7572) at room temperature. • Add 45 mL of NaCl/PBS solution to 5 ml of cell titer glo (10×). • Remove white plates from incubator, leave at room temp for 30 minutes. • Add 25 μl of diluted cell titer glo to each well. • Shake plate for >1 minute. • Incubate plate for >5 minutes to stabilize luminescence. • Luminescence is stable for up to 3 hours. • Read luminescence on plate reader

[1] = tested on: K48-Ub (lysine-48 chain linkage of poly-ubiquitin) in A549 cells; assay: A549 K48-Ub accumulation, immunofluorescence high-content imaging; type: cell-based; settings: Homo sapiens, 6 hr incubation
Method: Image-analysis is used to generate quantitative data from these assays that can be fit to a four-parameter sigmoid curve to derive IC50 values. Substrates of the ubiquitin-proteasome system, such as p53, are monitored after tumor cell lines are incubated with compounds for several hours. Accumulation of these proteins indicates an inhibition of proteasome-mediated degradation. Accumulation of lysine-48 chain linkage of poly-ubiquitin is also monitored by immunofluorescence as an indicator of ubiquitin-proteasome system inhibition. Both LC3 and SQSTM1 are mediators of autophagy. The localization and amounts of these proteins are monitored by immunofluorescence and report on the activity and inhibition of autophagy in response to p97 inhibition.
as §1, §2
Fix/Stain Black Plates: • Incubate cells in black plates with compound at 37 deg C. for 6 hrs. add 15 μL of 16% Paraformaldehyde (PFA) directly into media of each well, incubate at room temp for 5 min, flick plate and wash in 50 μL of PBS block in 50 μL of Blocking Buffer for 30 minutes (can go up to several hours) • Blocking buffer: 1×PBS, 1% BSA, 0.3% Triton-X 100, Hoechst (1:10,000) incubate in 25 μL of primary antibody in blocking buffer at 4 deg C. over night
Secondary Antibodies: • AlexaFluor488 Goat anti-Rabbit 1:2,000 (Life Tech A11008) • AlexaFluor555 Goat anti-Mouse 1:2.000 (Life Tech A21422)
Day 3/4 • Black Plate Staining (cont): • wash black plates 3× in 50 μL PBS (˜5 min each) incubate in 25 μl of secondary antibody (1:2,000) in blocking buffer for 1-2 hrs at room temp (alexafluor488-anti-Rabbit/alexafluor555-anti-Mouse) • wash 4× in 50 μL PBS (˜5 min each) • leave plates in PBS for imaging • clean bottom of plates with 70% EtOH
Imaging: • Image plates in high content microscope with 405 nm, 488 nm and 555 nm filters
Data Analysis: • Nuclear counts and cellular intensities of each markers are measured using Hoechst as a nuclear marker with an automated image analysis protocol using Matlab software (Math Works)

Sequence of p97 (P55072 whole entry): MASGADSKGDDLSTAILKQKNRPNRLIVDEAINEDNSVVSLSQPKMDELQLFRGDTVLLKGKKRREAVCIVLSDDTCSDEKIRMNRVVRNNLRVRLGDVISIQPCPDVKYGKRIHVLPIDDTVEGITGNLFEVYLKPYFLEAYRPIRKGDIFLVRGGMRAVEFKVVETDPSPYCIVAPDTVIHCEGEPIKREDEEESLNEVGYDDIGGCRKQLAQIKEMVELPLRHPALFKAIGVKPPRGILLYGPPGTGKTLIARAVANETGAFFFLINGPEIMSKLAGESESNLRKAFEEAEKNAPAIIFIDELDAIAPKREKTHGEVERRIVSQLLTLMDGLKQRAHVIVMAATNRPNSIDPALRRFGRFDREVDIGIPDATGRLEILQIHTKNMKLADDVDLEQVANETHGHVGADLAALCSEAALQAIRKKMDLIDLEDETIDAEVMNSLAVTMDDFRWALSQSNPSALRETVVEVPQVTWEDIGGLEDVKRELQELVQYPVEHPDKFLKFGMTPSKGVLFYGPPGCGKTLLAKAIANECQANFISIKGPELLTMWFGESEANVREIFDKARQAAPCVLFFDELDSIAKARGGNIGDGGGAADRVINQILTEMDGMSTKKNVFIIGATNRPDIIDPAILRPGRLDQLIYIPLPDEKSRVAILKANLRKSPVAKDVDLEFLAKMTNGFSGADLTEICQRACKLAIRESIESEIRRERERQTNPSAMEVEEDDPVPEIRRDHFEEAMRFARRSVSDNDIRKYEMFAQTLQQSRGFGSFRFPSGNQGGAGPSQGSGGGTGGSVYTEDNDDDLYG

Row | IC50 (p97) [µM] | IC50 (A549 cells) [µM] | IC50 [1] [µM] | Peff A B, Range (Caco-2 cells; pH 7.4 Caco-2, A to B) | Peff B A, Range (Caco-2 cells; pH 7.4 Caco-2, B to A) | SMILES
1 | < 0.03 | < 1 | < 3 | – | – | Cc1cc2c(C(N)=O)cccc2n1-c1nc2c(c(NCc3ccccc3)n1)CCCCC2 [FF18, 1-(4-(benzylamino)-6,7,8,9-tetrahydro-5H-cyclohepta[d]pyrimidin-2-yl)-2-methyl-1H-indole-4-carboxamide]
2 | < 0.1 | < 3 | < 1 | – | – | Cc1cc2c(C(N)=O)cccc2n1-c1nc(NCc2ccccc2)c2c(n1)C(C)CNC2 (centres unmarked) [FF19, 1-(4-(benzylamino)-8-methyl-5,6,7,8-tetrahydropyrido[4,3-d]pyrimidin-2-yl)-2-methyl-1H-indole-4-carboxamide]
3 | < 0.03 | < 1 | < 1 | – | – | Cc1cc2c(C(N)=O)cccc2n1-c1nc2c(c(NCc3ccccc3)n1)N(C)CCC2 [FF21, 1-(4-(benzylamino)-5-methyl-5,6,7,8-tetrahydropyrido[3,2-d]pyrimidin-2-yl)-2-methyl-1H-indole-4-carboxamide]
4 | < 0.03 | < 3 | < 3 | – | – | COc1nc2c(C(N)=O)cccc2n1-c1nc2c(c(NCc3ccccc3)n1)CCCN2 [FF23, 1-(4-(benzylamino)-5,6,7,8-tetrahydropyrido[2,3-d]pyrimidin-2-yl)-2-methoxy-1H-benzo[d]imidazole-4-carboxamide]
5 | < 0.03 | < 3 | < 3 | – | – | COc1nc2c(C(N)=O)cccc2n1-c1nc(NCc2ccccc2)c2c(n1)OCCC2 [FF24, 1-(4-(benzylamino)-6,7-dihydro-5H-pyrano[2,3-d]pyrimidin-2-yl)-2-methoxy-1H-benzo[d]imidazole-4-carboxamide]
6 | < 0.03 | < 3 | < 3 | – | – | Cc1cc2c(C(N)=O)cccc2n1-c1nc2c(c(NCc3cccc(F)c3)n1)NCCC2 [FF25, 1-(4-((3-fluorobenzyl)amino)-5,6,7,8-tetrahydropyrido[3,2-d]pyrimidin-2-yl)-2-methyl-1H-indole-4-carboxamide]
7 | < 0.03 | < 3 | < 3 | – | – | Cc1cc2c(C(N)=O)cccc2n1-c1nc2c(c(NCc3cccc(F)c3)n1)CCCN2 [FF26, 1-(4-((3-fluorobenzyl)amino)-5,6,7,8-tetrahydropyrido[2,3-d]pyrimidin-2-yl)-2-methyl-1H-indole-4-carboxamide]
8 | < 0.1 | < 3 | < 3 | – | – | Cc1[nH]c2c(C(N)=O)cccc2c1-c1nc(NCc2ccccc2)c2c(n1)OCCC2 [FF27, 3-(4-(benzylamino)-6,7-dihydro-5H-pyrano[2,3-d]pyrimidin-2-yl)-2-methyl-1H-indole-7-carboxamide]
9 | < 0.1 | < 3 | < 3 | – | – | NC(=O)c1cccc2c1cnn2-c1nc(NCc2ccccc2)c2c(n1)OCCC2 [FF28, 1-(4-(benzylamino)-6,7-dihydro-5H-pyrano[2,3-d]pyrimidin-2-yl)-1H-indazole-4-carboxamide]
10 | < 0.03 | < 3 | < 3 | – | – | Cc1cc2c(C(N)=O)cccc2n1-c1nc(NCc2ccccc2)c2c(n1)N(C)CCC2 [FF29, 1-(4-(benzylamino)-8-methyl-5,6,7,8-tetrahydropyrido[2,3-d]pyrimidin-2-yl)-2-methyl-1H-indole-4-carboxamide]
11 | < 0.03 | < 3 | < 3 | – | – | Cc1cc2c(C(N)=O)cccc2n1-c1nc(NCc2cc(F)cc(F)c2)c2c(n1)OCCC2 [FF30, 1-(4-((3,5-difluorobenzyl)amino)-6,7-dihydro-5H-pyrano[2,3-d]pyrimidin-2-yl)-2-methyl-1H-indole-4-carboxamide]
12 | < 0.1 | < 10 | < 10 | – | – | NCc1cc2c(C(N)=O)cccc2n1-c1nc(NCc2ccccc2)c2c(n1)OCCC2 [FF32, 2-(aminomethyl)-1-(4-(benzylamino)-6,7-dihydro-5H-pyrano[2,3-d]pyrimidin-2-yl)-1H-indole-4-carboxamide]
13 | < 0.03 | < 1 | < 1 | – | – | Cc1cc2c(C(N)=O)cccc2n1-c1nc2c(c(NCc3ccccc3)n1)NCCC2 [FF34, 1-(4-(benzylamino)-5,6,7,8-tetrahydropyrido[3,2-d]pyrimidin-2-yl)-2-methyl-1H-indole-4-carboxamide]
14 | < 0.03 | < 3 | < 3 | – | – | Cc1oc2c(C(N)=O)cccc2c1-c1nc2c(c(NCc3ccccc3)n1)CCCC2 [FF35, 3-(4-(benzylamino)-5,6,7,8-tetrahydroquinazolin-2-yl)-2-methylbenzofuran-7-carboxamide]
15 | – | – | – | 18.50-36.80 × E-6 cm/sec | 16.30-31.40 × E-6 cm/sec | CC(C)NCC(O)COc1cccc2ccccc12 (centres unmarked) [Propranolol]
